Common to all, as to assay type: in vivo
In experiment [1] the test system is matrix metalloproteinase 9 (MMP-9). The experiment is described as follows: Test for suppression of blood-brain barrier disruption (western blotting, MMP-9 antibody) in vascular dementia disease model mouse. To be noted: BCAS model mouse; 100 μmol/kg oral or intraperitoneal, three times/week; hippocampus and striatal tissue, 7 days after the surgery; FIG. 2. The source says:
(§1) Firstly, according to a general preparation method for vascular dementia disease model mouse (for example, Shibata M, Ohtani R, Ihara M, et al., Stroke 35: 2598-2603, 2004; or Ihara M, Taguchi A, Maki T, et al., Methods Mol Biol 1135: 95-102, 2014), the mouse was equipped with a 0.18 mm microcoil into a right common carotid artery of the mice and a 0.16 mm microcoil into a left common carotid artery thereof.
Next, a vascular dementia disease model mouse (hereinafter sometimes referred to as Bilateral common artery stenosis (BCAS) model) was prepared according to the below-mentioned schedule as shown in FIG. 1. […]
The vascular dementia disease model mouse which was prepared in the Test Example 1 was euthanized on 7 days after the surgery. […] The homogenate was crushed with ultrasonic while cooling on ice, and after centrifuging, the supernatant was subjected to a protein quantification by a bicinchoninic acid (BCA) method. Thereafter, the prepared protein sample was evaluated on an effect on suppression of blood-brain barrier disruption according to a western blotting method using antibody against matrix metalloproteinase 9 (MMP-9) similarly to a generally known method. […]
In general terms: Immunoblotting shows a protein as a band on a membrane.

The subject of experiment [2] is vascular dementia disease model mouse (BCAS model). The experiment is described as follows: Test for influence on cerebral blood flow (Laser-Doppler blood flow meter) in vascular dementia disease model mice. To be noted: 50, 75 or 100 μmol/kg oral or intraperitoneal, three times/week, measured up to 14 days after surgery, FIG. 5.
Excerpt: as §1
(§2) Next, a vascular dementia disease model mouse (hereinafter sometimes referred to as Bilateral common artery stenosis (BCAS) model) was prepared according to the below-mentioned schedule as shown in FIG. 1.
In the vascular dementia disease model mice (N (number of animals)=6 to 8 animals) that were prepared in the Test Example 1, a cerebral blood flow of a boundary region (blegma) between middle cerebral artery and anterior cerebral artery was measured at immediately before ischemic surgery, immediately after ischemic surgery, after 1 day, after 4 days, after 7 days or after 14 days. A Laser-Doppler blood flow meter was fixed on a skull, and a cerebral blood flow was measured, and the cerebral blood flow was evaluated as a ratio thereof to cerebral blood flow immediately before ischemic surgery. […]

Experiment [3] has as its system myelin basic protein (MBP). The experiment is described as follows: Test for suppression against reduction of a myelin basic protein (MBP), brain section immunostaining in vascular dementia disease model mouse. To be noted: BCAS model mouse; 100 μmol/kg oral or intraperitoneal, three times/week; brain frozen section, 28 days after the surgery; FIG. 3.
Excerpt: as §1, §2
Ethoxyquin or methyldopa were administered by an oral administration or an intraperitoneal administration in a dose of 100 μmol/kg by a ratio of three times/week until the completion of the test (for example, for 1 to 4 weeks). Here the test results in the case where a healthy mouse as control was used is shown.
The vascular dementia disease model mouse which was prepared in the Test Example 1 was euthanized on 28 days after the surgery. The frozen section of the brain of the mice (N (number of animal)=6 to 8 animals) were immobilized in cold acetone for 10 minutes, and washed with PBS for 5 minutes (× three times). […]

The subject of experiment [4] is vascular dementia disease model mouse (BCAS model). The experiment is described as follows: Novel object recognition test in vascular dementia disease model mouse. The conditions noted are these: 100 μmol/kg oral or intraperitoneal, three times/week, FIG. 4.
Excerpt: as §1, §2
Ethoxyquin or methyldopa were administered by an oral administration or an intraperitoneal administration in a dose of 100 μmol/kg by a ratio of three times/week until the completion of the test (for example, for 1 to 4 weeks). […]
A novel object recognition test was conducted by utilizing rodent's character of seeking novelty. […] After a certain times were passed, one of the object was changed by a novel object, and the animals were placed in the same observation box again, and the time exploring an object was measured for 10 minutes (Test trial). The time exploring a novel object or the time exploring the learned object were defined as “N” or “F” respectively, and were calculated by the following equation: the Exploration time=N+F, and the Discrimination Index=(N−F)/(N+F). […]

For `CCOc1ccc2c(c1)C(C)=CC(C)(C)N2` [Compound 1, 6-Ethoxy-2,2,4-trimethyl-1,2-dihydroquinoline], the “effect on suppressing a blood-brain barrier disruption (MMP-9 western blotting)” value in experiment [1] was “suggested an effect on suppressing a blood-brain barrier disruption”. The “influence on cerebral blood flow (ratio to flow immediately before ischemic surgery)” value in experiment [2] was “do not affect any cerebral blood flow”. Moreover, in experiment [3], the “effect on suppression of the reduction of myelin basic protein” value is on record as “suggested an effect on a suppression of the reduction of myelin basic protein”. The “novel object recognition (cognitive dysfunction, long-term spatial memory; Discrimination Index)” value in experiment [4] is “showed an improved cognitive dysfunction in a long-term spatial memory”.

On to `C[C@](N)(Cc1ccc(O)c(O)c1)C(=O)O` [Compound 2, Methyldopa sesquihydrates], for which the “effect on suppressing a blood-brain barrier disruption (MMP-9 western blotting)” value in experiment [1] is “suggested an effect on suppressing a blood-brain barrier disruption”. The “influence on cerebral blood flow (ratio to flow immediately before ischemic surgery)” value in experiment [2] is listed as “do not affect any cerebral blood flow”. Moreover, in experiment [3], the “effect on suppression of the reduction of myelin basic protein” value is reported as “suggested an effect on a suppression of the reduction of myelin basic protein”. Moreover, the “novel object recognition (cognitive dysfunction, long-term spatial memory; Discrimination Index)” value in experiment [4] is “showed an improved cognitive dysfunction in a long-term spatial memory”.
